Source: patent US20040014696A1, “Specificity in treatment of diseases” (priority 2003, published 2004)

Key:
[1] = Liver radioactivity in mice after repeated oral dosing; type: in vivo; conditions: oral 300 mg/kg daily for 8 days; for Total Liver Radioactivity: Cmin in liver; for Modified Ribavirin in liver: analyte modified Ribavirin
[2] = RBC radioactivity in mice after repeated oral dosing; type: in vivo; conditions: oral 300 mg/kg daily for 8 days; for Medium RBC Radioactivity (Mice): Cmin in RBCs
[3] = Toxicity findings (hemolytic anemia, RBCs) in Rhesus monkeys; conditions: 60 mg/kg followed by 30 mg/kg*day for 10 days
[4] = RBC radioactivity in portal vein-cannulated cynomolgus monkeys; conditions: for Medium RBC Radioactivity (Monkeys - multiple doses) / Medium RBC Radioactivity (Monkeys - single dose) / Time to peak radioactivity concentration in RBC: cynomolgus monkeys; for Medium RBC Radioactivity (Monkeys - multiple doses): projected steady state; for Medium RBC Radioactivity (Monkeys - single dose) / Time to peak radioactivity concentration in RBC: single oral dose 30 mg/kg
[5] = Liver radioactivity estimated from portal vs systemic plasma in portal vein-cannulated monkeys; type: in vivo
[6] = target: T1, Adenosine deaminase (ADA) (Bos taurus, UniProt P56658); assay: In vitro deamination by adenosine deaminase (UV 240 nm, mass spectrum); type: biochemical, calf; conditions: 0.2 mM compound with 0.5 μM ADA overnight, mass spectrum analysis
T1 construct: Adenosine deaminase (ADA) isolated from calf intestine; purchased Boehringer Mannheim; host or cells: calf intestine (tissue-isolated)
T1 sequence (P56658 1-363): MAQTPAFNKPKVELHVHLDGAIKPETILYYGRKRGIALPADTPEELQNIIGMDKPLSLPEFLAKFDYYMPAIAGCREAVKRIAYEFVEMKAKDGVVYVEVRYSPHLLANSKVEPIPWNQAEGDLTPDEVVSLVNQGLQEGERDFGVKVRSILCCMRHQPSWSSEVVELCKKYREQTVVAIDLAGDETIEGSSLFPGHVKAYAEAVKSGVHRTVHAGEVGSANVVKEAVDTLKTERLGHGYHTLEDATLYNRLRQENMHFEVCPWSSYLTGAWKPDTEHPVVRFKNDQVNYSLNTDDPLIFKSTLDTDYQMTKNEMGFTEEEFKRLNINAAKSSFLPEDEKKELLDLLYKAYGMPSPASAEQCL
Protocol: Adenosine deaminase (ADA) isolated from calf intestine was purchased from Boehringer Mannheim. The assay was performed in Dulbecco's PBS buffer (Na2HPO4, 8 mM; […] KCl, 2.7 mM; NaCl, 138 mM; pH 7.2) at room temperature (23° C.). […] Taking the limit of the UV assay method, the spontaneous hydrolysis of viramidine will be less than 2.5×10^−5 min^−1. […] The enzyme turnover number was estimated about 2.5 min^−1 at the current assay condition.

[7] = Spontaneous hydrolysis in Dulbecco's PBS buffer without enzyme; type: physicochemical
Protocol: Adenosine deaminase (ADA) isolated from calf intestine was purchased from Boehringer Mannheim. The assay was performed in Dulbecco's PBS buffer (Na2HPO4, 8 mM; […] KCl, 2.7 mM; NaCl, 138 mM; pH 7.2) at room temperature (23° C.). […] Taking the limit of the UV assay method, the spontaneous hydrolysis of viramidine will be less than 2.5×10^−5 min^−1.

RBCs = assay: In vitro transport into RBCs; type: cell-based; conditions: in vitro studies (data not shown)
erythrocytes = assay: Phosphorylation in erythrocytes; type: cell-based
Text: For example, the selectivity of the pharmacological effect of 1-beta-D-ribofuranosyl-1,2,4-triazole-3-carboxamide (Ribavirin, Structure 1) is increased by covalently coupling an ═NH group to Ribavirin to form a carboxamidine group. Ribavirin is known to have antiviral properties in hepatitis virus-infected hepatocytes (e.g., see review Marcellin, P. and Benhamou J.; Treatment of chronic viral hepatitis, Baillieres Clin Gastroenteol 1994 June; 8(2):233-53). It is also known, that Ribavirin is readily phosphorylated in erythrocytes to the pharmacologically active form Ribavirin-phosphate at a significant rate (e.g., Homma, M. et al. High-performance liquid chromatographic determination of Ribavirin in whole blood to assess disposition in erythrocytes; Antimicrob Agents Chemother 1999 November; 43(11):2716-9), which reduces the selective pharmacological effect.

SMILES | Total Liver Radioactivity [1] [μg equiv/g] | Radioactivity concentration Cmin in the liver, comparison ([1]; Ribavirin compared to modified Ribavirin) | Modified Ribavirin in liver [1] | Medium RBC Radioactivity (Mice) [2] [μg equiv/g] | Toxicity findings on RBCs [3] | Medium RBC Radioactivity (Monkeys - multiple doses) ([4]; multiple dosing at 30 mg/kg) | Medium RBC Radioactivity (Monkeys - single dose) [4] | Time to peak radioactivity concentration in RBC [4] [h] | Projected steady-state RBC radioactivity concentrations, comparison ([4]; multiple dosing at 30 mg/kg, Ribavirin compared to modified Ribavirin) | Share of liver radioactivity accounted for by modified Ribavirin [1] | RTCA in liver ([1]; analyte RTCA) | Radioactivity concentration Cmin in RBCs, comparison ([2]; modified Ribavirin vs Ribavirin) | RBC radioactivity as compared to Ribavirin ([5]; monkeys) [%] | Liver radioactivity concentration, higher than after oral dosing of Ribavirin ([5]; portal vein-cannulated monkeys, oral administration) | Conversion to Ribavirin [6] | Spontaneous hydrolysis rate ([7]; limit of the UV assay method, pH 7.2) | Spontaneous hydrolysis in buffer ([7]; no enzyme, pH 7.2, 1.5 h, 23° C.) | Effect of zinc ion on spontaneous hydrolysis rate ([7]; zinc ion added to the buffer) | Transport into RBCs (RBCs) | Phosphorylation in erythrocytes (erythrocytes)
NC(=O)c1ncn([C@@H]2O[C@H](CO)[C@@H](O)[C@H]2O)n1 [Ribavirin, 1-beta-D-ribofuranosyl-1,2,4-triazole-3-carboxamide, reference compound] | 18.4 | significantly lower | not detected | 1.36 | suffered from hemolytic anemia and significant decrease in RBCs | ˜5089 μg equiv/g | ˜41 μg equiv/g | 24 | significantly higher |  |  |  |  |  |  |  |  |  |  | 
N=C(N)c1ncn([C@@H]2O[C@H](CO)[C@@H](O)[C@H]2O)n1 [modified Ribavirin, 1-beta-D-ribofuranosyl-1,2,4-triazole-3-carboxamidine] | 23.8 |  | ˜7.2 μg eguiv/g μg equiv/g | 0.38 | no significant changes in RBCs | ˜606 μg equiv/g | ˜17 μg equiv/g | 24 |  | about 30% | not detected | significantly lower | ~12 | approximately 50% | more than 75% | less than 2.5×10^−5 min^−1 | no spontaneous hydrolysis | does not enhance the spontaneous hydrolysis rate | not directly transported into RBCs | is not, or is only insignificantly phosphorylated in erythrocytes
